Tested on: H1 human embryonic stem cells
Assay: Secondary assay: panel of compounds with growth factor combinations and muscimol, no activin A (Example 6, Table 5)
Format: cell-based
Conditions: no AA (with Wnt3a)
Procedure: Clusters of H1 human embryonic stem cells were grown on reduced growth factor […]™ (Invitrogen; Cat #356231)-coated tissue culture plastic. Cells were passaged using collagenase (Invitrogen; Cat #17104-019) treatment and gentle scraping, washed to remove residual enzyme, and plated with even dispersal at a ratio of 1:1 (surface area) on reduced growth factor […]™-coated 96-well black plates (Packard ViewPlates; PerkinElmer; Cat #6005182) using volumes of 100 μl/well. Cells were allowed to attach as clusters and then recover log phase growth over a 1 to 3 day period, feeding daily with MEF-conditioned medium supplemented with 8 ng/ml bFGF (R&D Systems; Cat #233-FB). Plates were maintained at 37° C., 5% CO2 in a humidified box throughout the duration of the assay. Stocks of growth factors purchased from R&D Systems were EGF (Cat #236-EG), FGF4 (Cat #235-F4), PDGF-A (Cat #221-AA), PDGF-D (Cat #1159-SB), PDGF-A/B (Cat #222-AB), and VEGF (Cat #293-VE). […] All growth factors were solubilized in PBS with 0.1% BSA (Sigma; Cat #A7888) and stored frozen at −80° C. […] Cat #D2650) and stored frozen at −80° C. Compounds were available as 5 mM stocks in 96-well plate format, solubilized in 100% DMSO and stored at −80° C. Compounds were further diluted to an intermediate concentration of 0.2 mM in 50 mM HEPES (Invitrogen; Cat #15630-080), 20% DMSO and stored at 4° C. All growth factors and inhibitors were prepared in a deep well, 96-well polypropylene plate, diluted to 5× intermediate stocks in DMEM:F12 base medium at the beginning of assay and stored at 4° C. A secondary screening assay was conducted, testing in triplicate and feeding on alternate days over the four-day assay timeframe. Assays were initiated by aspirating culture medium from each well followed by three washes in PBS to remove residual growth factors and serum. Test volumes of 80 μl per well were added back containing DMEM:F12 base medium (Invitrogen; Cat #11330-032) supplemented with 0.625% FCS (HyClone; […] All remaining growth factors were tested at a final assay concentration of 50 ng/ml (EGF, FGF4, PDGF-A, PDGF-A/B, VEGF). […] At the conclusion of four-days of culture, assay plates were washed twice with PBS, fixed with 4% paraformaldehyde (Alexis Biochemical; Cat #ALX-350-011) at room temperature for 20 minutes, then washed three times with PBS and permeabilized with 0.5% Triton X-100 (Sigma; Cat #T8760-2) for 20 minutes at room temperature. Cells were washed again three times with PBS and blocked with 4% chicken serum (Invitrogen; Cat #16110082) in PBS for 30 minutes at room temperature. Primary antibody (goat anti-human SOX17; R&D Systems; cat #AF1924) was diluted 1:100 in 4% chicken serum and added to each well for one hour at room temperature. Alexa Fluor 488 conjugated secondary antibody (chicken anti-goat IgG; Molecular Probes; Cat #AZ1467) was diluted 1:200 in PBS and added to each sample well after washing three times with PBS. To counterstain nuclei, 4 μg/ml Hoechst 33342 (Invitrogen; Cat #H3570) was added for ten minutes at room temperature. Plates were washed once with PBS and left in 100 μl/well PBS for imaging. Imaging was performed using an IN Cell Analyzer 1000 (GE Healthcare) utilizing the 51008bs dichroic for cells stained with Hoechst 33342 and Alexa Fluor 488. Exposure times were optimized from positive control wells and from untreated negative control wells stained with secondary antibody alone. Images from 15 fields per well were acquired to compensate for any cell loss during the bioassay and subsequent staining procedures. […] Segmentation for the nuclei was determined based on grayscale levels (baseline range 100-300) and nuclear size. Averages and standard deviations were calculated for each replicate data set. Total SOX17 protein expression was reported as total intensity or integrated intensity, defined as total fluorescence of the cell multiplied by the area of the cell. […]

[1] = EGF + FGF4 + PDGF-AB + Muscimol

Row | SMILES | Cell Number, % of positive control (EGF) [%] | Cell Number, Average Total Cell Number (EGF) | Sox17 Expression, % of positive control (EGF) [%] | Sox17 Expression, Average Total Intensity (EGF) | Cell Number, % of positive control (EGF + FGF4) [%] | Cell Number, Average Total Cell Number (EGF + FGF4) | Sox17 Expression, % of positive control (EGF + FGF4) [%] | Sox17 Expression, Average Total Intensity (EGF + FGF4) | Cell Number, % of positive control (EGF + FGF4 + PDGF-A + Muscimol) [%] | Cell Number, Average Total Cell Number (EGF + FGF4 + PDGF-A + Muscimol) | Sox17 Expression, % of positive control (EGF + FGF4 + PDGF-A + Muscimol) [%] | Sox17 Expression, Average Total Intensity (EGF + FGF4 + PDGF-A + Muscimol) | Cell Number, % of positive control (EGF + FGF4 + PDGF-A + VEGF) [%] | Cell Number, Average Total Cell Number (EGF + FGF4 + PDGF-A + VEGF) | Sox17 Expression, % of positive control (EGF + FGF4 + PDGF-A + VEGF) [%] | Sox17 Expression, Average Total Intensity (EGF + FGF4 + PDGF-A + VEGF) | Cell Number, % of positive control (EGF + FGF4 + PDGF-AB) [%] | Cell Number, Average Total Cell Number (EGF + FGF4 + PDGF-AB) | Sox17 Expression, % of positive control (EGF + FGF4 + PDGF-AB) [%] | Sox17 Expression, Average Total Intensity (EGF + FGF4 + PDGF-AB) | further results
1 | CN1CCC(=O)NCCCNc2ncccc2-c2ncnc(n2)Nc2cccc(c2)C1 [Compound 39, 9-Methyl-2,3,4,5,7,8,9,10-octahydro-16H-17,21-(azeno)-11,15-(metheno)pyrido[3,2-g][1,3,5,9,13,17]hexaazacyclotricosin-6(1H)-one] | 122.85 | 11615 | 0.09 | 1.49E+05 | 110.59 | 10456 | 2.98 | 5.11E+06 | 96.28 | 9103 | 0.43 | 7.32E+05 | 84.33 | 7973 | 3.09 | 5.30E+06 | 105.47 | 9972 | 0.94 | 1.62E+06 | Cell Number, % of positive control [1]: 111.48%; Cell Number, Average Total Cell Number [1]: 10540; Sox17 Expression, % of positive control [1]: 1.29%; Sox17 Expression, Average Total Intensity [1]: 2.22E+06; Cell Number, % of positive control (EGF + PDGF-A + VEGF): 180.34%; Cell Number, Average Total Cell Number (EGF + PDGF-A + VEGF): 17050; Sox17 Expression, % of positive control (EGF + PDGF-A + VEGF): 2.82%; Sox17 Expression, Average Total Intensity (EGF + PDGF-A + VEGF): 4.84E+06; Cell Number, % of positive control (FGF4 + PDGF-A + VEGF): 93.67%; Cell Number, Average Total Cell Number (FGF4 + PDGF-A + VEGF): 8856; Sox17 Expression, % of positive control (FGF4 + PDGF-A + VEGF): 0.41%; Sox17 Expression, Average Total Intensity (FGF4 + PDGF-A + VEGF): 7.01E+05
2 | O=C1NCCCc2cncc(c2)-c2ncnc(n2)Nc2cc(Cl)cc(c2)CN2CCCC1C2 (stereo not drawn) [Compound 37, 10-Chloro-3,5,7,14,20,26,31-heptaazapentacyclo[22.3.1.1˜2,6˜0.1˜8,12˜0.1˜14,18˜]hentriaconta-1(28), 2(31), 3,5,8(30), 9,11,24,26-nonaen-19-one] | 76.17 | 7966 | −7.42 | −1.19E+07 | 66.28 | 6932 | −2.89 | −4.62E+06 | 55.66 | 5821 | −7.64 | −1.22E+07 | 83.93 | 8778 | 0.09 | 1.39E+05 | 71.46 | 7473 | −1.63 | −2.61E+06 | Cell Number, % of positive control [1]: 75.67%; Cell Number, Average Total Cell Number [1]: 7914; Sox17 Expression, % of positive control [1]: −1.20%; Sox17 Expression, Average Total Intensity [1]: −1.91E+06; Cell Number, % of positive control (EGF + PDGF-A + VEGF): 123.88%; Cell Number, Average Total Cell Number (EGF + PDGF-A + VEGF): 12956; Sox17 Expression, % of positive control (EGF + PDGF-A + VEGF): −7.82%; Sox17 Expression, Average Total Intensity (EGF + PDGF-A + VEGF): −1.25E+07; Cell Number, % of positive control (FGF4 + PDGF-A + VEGF): 64.36%; Cell Number, Average Total Cell Number (FGF4 + PDGF-A + VEGF): 6731; Sox17 Expression, % of positive control (FGF4 + PDGF-A + VEGF): −6.89%; Sox17 Expression, Average Total Intensity (FGF4 + PDGF-A + VEGF): −1.10E+07
3 | CCN1CC(=O)NCCCc2cncc(c2)-c2ncnc(n2)Nc2cc(Cl)cc(c2)C1 [Compound 35, 10-Chloro-14-ethyl-3,5,7,14,17,23,27-heptaazatetracyclo[19.3.1.1˜2,6˜0.1˜8,12]Theptacosa-1(25), 2(27), 3,5,8(26), 9,11,21,23-nonaen-16-one] | 228.40 | 23887 | −6.32 | −1.01E+07 | 203.36 | 21268 | 0.85 | 1.36E+06 | 147.80 | 15457 | 43.15 | 6.89E+07 | 154.25 | 16132 | 57.04 | 9.11E+07 | 168.39 | 17611 | 8.03 | 1.28E+07 | Cell Number, % of positive control [1]: 171.62%; Cell Number, Average Total Cell Number [1]: 17949; Sox17 Expression, % of positive control [1]: 0.96%; Sox17 Expression, Average Total Intensity [1]: 1.54E+06; Cell Number, % of positive control (EGF + PDGF-A + VEGF): 222.23%; Cell Number, Average Total Cell Number (EGF + PDGF-A + VEGF): 23242; Sox17 Expression, % of positive control (EGF + PDGF-A + VEGF): 7.72%; Sox17 Expression, Average Total Intensity (EGF + PDGF-A + VEGF): 1.23E+07; Cell Number, % of positive control (FGF4 + PDGF-A + VEGF): 153.63%; Cell Number, Average Total Cell Number (FGF4 + PDGF-A + VEGF): 16068; Sox17 Expression, % of positive control (FGF4 + PDGF-A + VEGF): 24.57%; Sox17 Expression, Average Total Intensity (FGF4 + PDGF-A + VEGF): 3.92E+07

From patent US9593305B2, “Differentiation of pluripotent stem cells” (Janssen Biotech, Inc., priority 2008, dated 2017)
